Experimental findings from ChEMBL document CHEMBL1201862, “PubChem BioAssay data set” (2004) are described below.

Structures are written as SMILES.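 Five compound concentrations were applied to cells in 96-well plates for 48 hours; endpoints were derived by simple linear interpolation of the resulting dose-response curve. Abbreviation: GI50, concentration required for 50% inhibition of growth.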 The source made the active and inactive calls. Rule as the data show it: active = GI50 up to about 1.1 µM and inactive = higher.

Test [1] deals with MDA-N. In words: NCI-60 cell line screen, 48 h.
Test [2] concerns BT-549. The test is described as follows: NCI-60 cell line screen, 48 h.

For the compound `COc1cc(/C=C2\C[C@H]3[C@@H]4CCc5cc(O)ccc5[C@H]4CC[C@]3(C)C2=O)cc(OC)c1OC`, the GI50 in test [1] is 15.6 µM (inactive); in test [2] it was 18.9 µM (inactive).

As for `COc1ccc2c(c1)c(=Cc1ccc(N(C)C)cc1)c1cc(-c3ccccc3)[n+](C)n12`, the GI50 is 0.378 µM (active) in test [1] and 0.0182 µM (active) in test [2].

For the compound `N#Cc1c2c(c(Nc3ccc(F)cc3)n3c1nc1ccccc13)CCCC2`, the GI50 was > 28.6 µM (inactive) in test [1] and > 91.6 µM (inactive) in test [2].

For `O=C1NC(=S)NC(=O)C1=Cc1ccc(-c2ccccc2)cc1`, the GI50 in test [1] and in test [2] was > 100 µM (inactive) throughout.

For the compound `N=C(N)N/N=C/c1c(-c2ccc(Cl)c([N+](=O)[O-])c2)nc2sc(Cl)cn12`, in test [2], the GI50 was 1.69 µM (inactive).

Consider `CC[C@@H]1ON(C)[C@H]2CN(C)C(=O)[C@@H]12`, for which the GI50 in test [1] was > 100 µM (inactive).

As for `CN1C2CCC1CC(CCNC(c1ccccc1)c1ccccc1)C2` (configuration not stated), the figures for the GI50 in test [1] and in test [2] were 12.6 µM (inactive) and 49.3 µM (inactive), respectively.

With `C#CC1(O)C(COP(=O)(O)OC(COCCCCCCCCCCCCCCCCCC)COP(=O)(O)OCC2OC(n3cc(C)c(=O)[nH]c3=O)CC2N=[N+]=[N-])OC(n2ccc(N)nc2=O)C1O` (configuration not stated), the GI50 in test [1] was 1.14 µM (inactive); in test [2], 2.68 µM (inactive).

For `COC(=O)/C(C#N)=C(\N)c1c(C)c2ccccc2oc1=N`, the results for the GI50 in test [1] and in test [2] were > 100 µM (inactive) and 64.6 µM (inactive), respectively.

For the compound `CC(C)(C)OC(=O)NCCC(=O)NC1(c2cc3ccccc3s2)CCCCC1`, the GI50 in test [1] is 17.6 µM (inactive); in test [2], 16.9 µM (inactive).

As for `NS(=O)(=O)c1ccc(NNc2c3ccccc3nc3c(C(=O)Nc4ccc(S(N)(=O)=O)cc4)cccc23)cc1`, the GI50 in test [1] was 65 µM (inactive); in test [2], 5.85 µM (inactive).

Consider `COC(=O)C1CCC(=O)N1C(c1ccc(OC)cc1)c1ccc2c(c1)OCO2` (configuration not stated), for which the GI50 is 7.46 µM (inactive) in test [1] and 89.7 µM (inactive) in test [2].

For the compound `CC12C(=O)OC(=O)C1(C)C1C=CC2O1` (configuration not stated), the GI50 in test [1] and in test [2] was > 100 µM (inactive) each time.

With `CC(C)(C)[Si](C)(C)OC1(CCc2ccccc2OS(=O)(=O)C(F)(F)F)CCCC=C1COCc1ccccc1` (configuration not stated), in test [2], the GI50 was > 100 µM (inactive).

As for `COc1cc2cc(C(=O)N3C[C@@H](CCl)c4c3cc(N)c3ccccc43)[nH]c2c(OC)c1OC`, the GI50 in test [1] is 0.000296 µM (active); in test [2], 0.0442 µM (active).

For the compound `O=C1/C(=C/c2ccc(Cl)cc2)Sc2scc(-c3cccc([N+](=O)[O-])c3)[n+]21`, the GI50 in test [1] is 3.36 µM (inactive); in test [2], 2.2 µM (inactive).

`COc1ccc(NC(C)=O)cc1N1C(=O)/C(=C\c2cc(OC)c(OC)c(OC)c2)S(=O)(=O)C1c1ccccc1` (configuration not stated): the values for the GI50 in test [1] and in test [2] were 34.1 µM (inactive) and > 100 µM (inactive), respectively.

Turning to `COC(=O)C(CCCCNC(=O)CNC(=O)OCc1ccccc1)NC(=O)C(CCCCNC(=O)CNC(=O)OCc1ccccc1)NC(=O)OCc1ccccc1` (configuration not stated), the GI50 in test [1] is 51.6 µM (inactive); in test [2] it was 20.7 µM (inactive).

As for `CC(C)/C(Cl)=N\OC(=O)Nc1ccc(C#N)cc1`, the GI50 was 6.01 µM (inactive) in test [1] and 13.7 µM (inactive) in test [2].

As to `O=c1oc2ccc([N+](=O)[O-])cc2cc1-c1csc(-c2ccccc2)n1`, the GI50 in test [1] and in test [2] was > 100 µM (inactive) throughout.

With `Cc1n[nH]c(=O)n1N=C(c1ccccc1)c1ccccc1`, the GI50 in test [1] and in test [2] was > 100 µM (inactive) throughout.

As for `NCc1ccc(-c2ccc(-c3ccc(-c4ccc(CN)s4)s3)s2)s1`, in test [1], the GI50 is > 100 µM (inactive).

For the compound `COc1ccc2nc3cc([N+](=O)[O-])ccc3c(Nc3ccc(S(=O)(=O)Nc4ncccn4)cc3)c2c1`, the GI50 was > 89.1 µM (inactive) in test [1] and > 44.4 µM (inactive) in test [2].

For the compound `Cc1cc2c(cc1C)[n+]([O-])c(C(=O)N1CCN(c3ccc([N+](=O)[O-])cc3)CC1)c(C)[n+]2[O-]`, the GI50 in test [1] was > 100 µM (inactive); in test [2] it was 22.6 µM (inactive).

Take `CC(C)(C)OC(=O)N1CCC(NC(=O)NC2CCN(C(=O)OC(C)(C)C)CC2)CC1`: the GI50 was > 100 µM (inactive) in test [1] and 0.118 µM (active) in test [2].

With `COC1(OC)C2(Cl)C(Cl)=C(Cl)C1(Cl)C1COCC12` (configuration not stated), the GI50 was > 20.4 µM (inactive) in test [1] and > 100 µM (inactive) in test [2].

Consider `CN(C)CC1CN=C(N)O1` (configuration not stated), for which the GI50 in test [1] was > 100 µM (inactive).

As to `CC(C)CCCC(C)[C@H]1CC[C@H]2[C@@H]3CC[C@H]4C[C@@H](CCC=C(c5cc(Cl)c(O)c(C(=O)O)c5)c5cc(Cl)c(O)c(C(=O)O)c5)CC[C@]4(C)[C@H]3CC[C@]12C` (some centres not stated), in test [2], the GI50 is > 50 µM (inactive).

Regarding `CN1C(=O)C2(C)SC1(c1ccccc1)C1C(=O)N(c3ccccc3)C(=O)C12` (configuration not stated), the GI50 in test [1] and in test [2] was > 100 µM (inactive) throughout.

For `Cn1c2ccccc2c2c3c(c4c5ccccc5n(C)c4c21)C(=O)c1ccccc1C3=O`, the GI50 was 72.8 µM (inactive) in test [1] and 20.4 µM (inactive) in test [2].

For `CC1(C)CCSC(/C=C/c2ccccc2)=N1`, the GI50 in test [1] is 12.4 µM (inactive); in test [2], 7.14 µM (inactive).

Turning to `Oc1cc(O)c2ccc(-c3ccc(O)c(O)c3)[o+]c2c1`, the results for the GI50 in test [1] and in test [2] were > 100 µM (inactive) and 39.9 µM (inactive), respectively.

As for `c1ccc(C2=C(c3ccccc3)Sc3nnc(CCCCCCCCc4nnc5n4NC(c4ccccc4)=C(c4ccccc4)S5)n3N2)cc1`, the GI50 in test [2] is 46.6 µM (inactive).

As to `CN1CCC2(CC1)SC[C@H]1C(=O)N(c3ccc(Cl)cc3)C(=O)N12`, the GI50 in test [1] and in test [2] was > 100 µM (inactive) throughout.

In the case of `O=C1CC(C(COCc2ccccc2)OCc2ccccc2)CC(=O)N1` (configuration not stated), the GI50 in test [1] is > 100 µM (inactive); in test [2], 45 µM (inactive).

For the compound `S=C1C=C(c2ccccc2)Sc2ccccc2N1`, the GI50 in test [1] and in test [2] was > 100 µM (inactive) throughout.

Turning to `O=C(COc1ccc(OCC(=O)NNC2=NC(c3cc(F)c(Cl)cc3Cl)CS2)c(Cl)c1)NNC1=NC(c2cc(F)c(Cl)cc2Cl)CS1` (configuration not stated), the results for the GI50 in test [1] and in test [2] were 28.4 µM (inactive) and 24.1 µM (inactive), respectively.

`CN(CCCN=C=S)CCCN1c2ccccc2CCc2ccccc21`: the GI50 in test [1] is 1.71 µM (inactive); in test [2], 2.83 µM (inactive).

As for `Cc1ccc(/C=N/n2c(Cc3ccccc3)n[nH]c2=O)cc1`, the GI50 in test [1] was > 100 µM (inactive); in test [2], 19.8 µM (inactive).

As for `C=C1C[C@@H]2CC[C@@]34CC5O[C@H]6C(O[C@H]7CC[C@H](CC(=O)O[C@@H]8[C@@H](C)[C@@H]9O[C@@H]%10C[C@]%11(C[C@@H]%12O[C@]%13(C[C@H](C)[C@@H]%14O[C@@H]%15CC(C(COC(C)=O)OC(C)=O)O[C@@H]%15C[C@@H]%14O%13)C[C@H](C)[C@@H]%12O%11)O[C@@H]%10C[C@@H]9O[C@H]8CC8O[C@@H](CC[C@@H]1O2)C[C@@H](C)C8(O)CO)O[C@@H]7[C@@H]6O3)[C@H]5O4` (some centres not stated), the GI50 in test [2] was 0.0908 µM (active).

Take `Clc1ccc(Cc2nc3cc(Cl)c(Cl)cc3n2CC2CCCN3CCCCC23)cc1Cl` (configuration not stated): the GI50 in test [1] was 4.79 µM (inactive); in test [2], 8.43 µM (inactive).

Regarding `COc1cc(C2c3cc4c(cc3[C@@H](Nc3ccc(F)cc3)C3COC[C@H]23)OCO4)cc(OC)c1O` (some centres not stated), the GI50 in test [1] is 7.66 µM (inactive).

As for `Cc1ccc(/C=C/C(=O)c2cc(CN(C)C)c(O)c(CN(C)C)c2)cc1`, the GI50 in test [1] is 15.2 µM (inactive); in test [2] it was 18.3 µM (inactive).
